What follows are substances tested on HLA-A*02 (assay: MHC binding assay, UV-ligand exchange with β2m ELISA, HLA-A*02 (Table 20)). Conditions: binding to HLA-A*02 ranged by peptide exchange yield (UV-ligand exchange, β2m ELISA).
Parameters: species or system human
Text: Candidate peptides for T cell based therapies according to the present invention were further tested for their MHC binding capacity (affinity). The individual peptide-MHC complexes were produced by UV-ligand exchange, where a UV-sensitive peptide is cleaved upon UV-irradiation, and exchanged with the peptide of interest as analyzed. Only peptide candidates that can effectively bind and stabilize the peptide-receptive MHC molecules prevent dissociation of the MHC complexes. To determine the yield of the exchange reaction, an ELISA was performed based on the detection of the light chain ((β2m) of stabilized MHC complexes. The assay was performed as generally described in Rodenko et al. (Rodenko et al., 2006).
96 well MAXISorp plates (NUNC) were coated over night with 2 ug/ml streptavidin in PBS at room temperature, washed 4× and blocked for 1 h at 37° C. in 2% BSA containing blocking buffer. Refolded HLA-A*02:01/MLA-001 monomers served as standards, covering the range of 15-500 ng/ml. Peptide-MHC monomers of the UV-exchange reaction were diluted 100 fold in blocking buffer. Samples were incubated for 1 h at 37° C., washed four times, incubated with 2 ug/ml HRP conjugated anti-β2m for 1 h at 37° C., washed again and detected with TMB solution that is stopped with […]. Absorption was measured at 450 nm. Candidate peptides that show a high exchange yield (preferably higher than 50%, most preferred higher than 75%) are generally preferred for a generation and production of antibodies or fragments thereof, and/or T cell receptors or fragments thereof, as they show sufficient avidity to the MHC molecules and prevent dissociation of the MHC complexes.
For “107 (LLVPTSGIYFV; listed as Homo sapiens) [compound 107]”, the Peptide exchange was “+++ (50%-75% = +++)”. “124 (KVMATIEKV; listed as Homo sapiens) [compound 124]” was tested, and the Peptide exchange was “++ (20%-49% = ++)”. In the case of “104 (ALISWQPPRA; listed as Homo sapiens) [compound 104]”, the Peptide exchange is reported as “+++ (50%-75% = +++)”. For “95 (GLLGSLFFL; listed as Homo sapiens) [compound 95]”, the Peptide exchange was “++++ (≧75% = ++++)”. With “118 (QLWQFLVTL; listed as Homo sapiens) [compound 118]” the Peptide exchange was “+++ (50%-75% = +++)”. For “32 (VQLDSIEDLEV; listed as Homo sapiens) [compound 32]”, the Peptide exchange was “+++ (50%-75% = +++)”. With “3 (KLEENGDLYL; listed as Homo sapiens) [compound 3]” the Peptide exchange was “++++ (≧75% = ++++)”. In the case of “108 (ILLKNLVTI; listed as Homo sapiens) [compound 108]”, the Peptide exchange is reported as “++ (20%-49% = ++)”. For “136 (FLFGGVLMTL; listed as Homo sapiens) [compound 136]”, the Peptide exchange was “++ (20%-49% = ++)”. In the case of “256 (SLGEEQFSV; listed as Homo sapiens) [compound 256]”, the Peptide exchange is reported as “++ (20%-49% = ++)”. In the case of “89 (QLAPVFQRV; listed as Homo sapiens) [compound 89]”, the Peptide exchange is reported as “++ (20%-49% = ++)”. With “81 (NALDKVLSV; listed as Homo sapiens) [compound 81]” the Peptide exchange was “+++ (50%-75% = +++)”. “71 (VLHSKFWVV; listed as Homo sapiens) [compound 71]” was tested, and the Peptide exchange was “+++ (50%-75% = +++)”. In the case of “113 (FLERGLESA; listed as Homo sapiens) [compound 113]”, the Peptide exchange is reported as “++ (20%-49% = ++)”. With “244 (YLLEKNRVV; listed as Homo sapiens) [compound 244]” the Peptide exchange was “++ (20%-49% = ++)”. With “44 (SLFETAWEA; listed as Homo sapiens) [compound 44]” the Peptide exchange was “+++ (50%-75% = +++)”. In the case of “246 (TVSDVLNSV; listed as Homo sapiens) [compound 246]”, the Peptide exchange is reported as “+++ (50%-75% = +++)”. For “259 (ILLPRIIEA; listed as Homo sapiens) [compound 259]”, the Peptide exchange was “+++ (50%-75% = +++)”. With “250 (SLAPATPEV; listed as Homo sapiens) [compound 250]” the Peptide exchange was “+++ (50%-75% = +++)”. In the case of “21 (AIQDEIRSV; listed as Homo sapiens) [compound 21]”, the Peptide exchange is reported as “+++ (50%-75% = +++)”. In the case of “13 (ALMAMLVYV; listed as Homo sapiens) [compound 13]”, the Peptide exchange is reported as “++ (20%-49% = ++)”. With “100 (ALLGMIIVGV; listed as Homo sapiens) [compound 100]” the Peptide exchange was “+ (<20% = +)”. “67 (TLLQRLTEV; listed as Homo sapiens) [compound 67]” was tested, and the Peptide exchange was “+++ (50%-75% = +++)”. “252 (RLMEICESL; listed as Homo sapiens) [compound 252]” was tested, and the Peptide exchange was “+++ (50%-75% = +++)”. “110 (FLLGVSKEV; listed as Homo sapiens) [compound 110]” was tested, and the Peptide exchange was “+++ (50%-75% = +++)”. For “261 (QLQDRVYAL; listed as Homo sapiens) [compound 261]”, the Peptide exchange was “+++ (50%-75% = +++)”. “148 (MLAGIAITV; listed as Homo sapiens) [compound 148]” was tested, and the Peptide exchange was “+++ (50%-75% = +++)”. With “126 (QMFQYFITV; listed as Homo sapiens) [compound 126]” the Peptide exchange was “++++ (≧75% = ++++)”. For “19 (SISDNVWEV; listed as Homo sapiens) [compound 19]”, the Peptide exchange was “+++ (50%-75% = +++)”. With “34 (FLLATEVVTV; listed as Homo sapiens) [compound 34]” the Peptide exchange was “++++ (≧75% = ++++)”. In the case of “266 (YAIGLVMRL; listed as Homo sapiens) [compound 266]”, the Peptide exchange is reported as “+++ (50%-75% = +++)”. With “42 (LLDSVSRL; listed as Homo sapiens) [compound 42]” the Peptide exchange was “+ (<20% = +)”. “109 (SLDPSVTHL; listed as Homo sapiens) [compound 109]” was tested, and the Peptide exchange was “++ (20%-49% = ++)”. With “82 (FIFDEAEKL; listed as Homo sapiens) [compound 82]” the Peptide exchange was “+ (<20% = +)”. For “51 (LLFSRLCGA; listed as Homo sapiens) [compound 51]”, the Peptide exchange was “++++ (≧75% = ++++)”. “40 (VLIDPQWVLTA; listed as Homo sapiens) [compound 40]” was tested, and the Peptide exchange was “+++ (50%-75% = +++)”. “234 (LLSPHNPAL; listed as Homo sapiens) [compound 234]” was tested, and the Peptide exchange was “+++ (50%-75% = +++)”. For “147 (YLMDDTVEI; listed as Homo sapiens) [compound 147]”, the Peptide exchange was “++++ (≧75% = ++++)”. In the case of “59 (KLLDPQEFTL; listed as Homo sapiens) [compound 59]”, the Peptide exchange is reported as “+++ (50%-75% = +++)”. For “28 (SLPNGKPVSV; listed as Homo sapiens) [compound 28]”, the Peptide exchange was “+++ (50%-75% = +++)”. With “22 (FVDPNTQEKV; listed as Homo sapiens) [compound 22]” the Peptide exchange was “++ (20%-49% = ++)”. With “128 (TQSPATLSV; listed as Homo sapiens) [compound 128]” the Peptide exchange was “++ (20%-49% = ++)”. With “39 (HLLEGSVGV; listed as Homo sapiens) [compound 39]” the Peptide exchange was “+++ (50%-75% = +++)”. With “123 (VLDPALPALV; listed as Homo sapiens) [compound 123]” the Peptide exchange was “++ (20%-49% = ++)”. With “255 (SLLHFTENL; listed as Homo sapiens) [compound 255]” the Peptide exchange was “+++ (50%-75% = +++)”. In the case of “101 (ALADFMLSL; listed as Homo sapiens) [compound 101]”, the Peptide exchange is reported as “+++ (50%-75% = +++)”. In the case of “238 (GLYERPTAA; listed as Homo sapiens) [compound 238]”, the Peptide exchange is reported as “++ (20%-49% = ++)”. For “55 (SLATKIVEA; listed as Homo sapiens) [compound 55]”, the Peptide exchange was “+++ (50%-75% = +++)”. With “135 (HLSTIIHEA; listed as Homo sapiens) [compound 135]” the Peptide exchange was “+++ (50%-75% = +++)”. For “74 (TLFGYSVVL; listed as Homo sapiens) [compound 74]”, the Peptide exchange was “+++ (50%-75% = +++)”. “57 (TVFTDHMLTV; listed as Homo sapiens) [compound 57]” was tested, and the Peptide exchange was “++ (20%-49% = ++)”. In the case of “127 (KLDGNELDL; listed as Homo sapiens) [compound 127]”, the Peptide exchange is reported as “+++ (50%-75% = +++)”. For “134 (GLAVPTPSV; listed as Homo sapiens) [compound 134]”, the Peptide exchange was “+++ (50%-75% = +++)”. With “37 (ILAPFSVDL; listed as Homo sapiens) [compound 37]” the Peptide exchange was “+++ (50%-75% = +++)”. With “62 (ALNPELVQA; listed as Homo sapiens) [compound 62]” the Peptide exchange was “++ (20%-49% = ++)”. With “105 (ALLGTKILL; listed as Homo sapiens) [compound 105]” the Peptide exchange was “+++ (50%-75% = +++)”. In the case of “239 (KMNESTRSV; listed as Homo sapiens) [compound 239]”, the Peptide exchange is reported as “++ (20%-49% = ++)”. In the case of “240 (YMGEEKLIASV; listed as Homo sapiens) [compound 240]”, the Peptide exchange is reported as “+++ (50%-75% = +++)”. “102 (VLLDIQEVFQI; listed as Homo sapiens) [compound 102]” was tested, and the Peptide exchange was “+++ (50%-75% = +++)”. “146 (ALHFSEDEI; listed as Homo sapiens) [compound 146]” was tested, and the Peptide exchange was “++ (20%-49% = ++)”. In the case of “80 (KLYEADFVL; listed as Homo sapiens) [compound 80]”, the Peptide exchange is reported as “++ (20%-49% = ++)”. For “130 (SLLGGTFVGI; listed as Homo sapiens) [compound 130]”, the Peptide exchange was “+++ (50%-75% = +++)”. With “83 (GQASYFYVA; listed as Homo sapiens) [compound 83]” the Peptide exchange was “++ (20%-49% = ++)”. “241 (KTIQQLETV; listed as Homo sapiens) [compound 241]” was tested, and the Peptide exchange was “++ (20%-49% = ++)”. In the case of “75 (AVIKFLELL; listed as Homo sapiens) [compound 75]”, the Peptide exchange is reported as “+++ (50%-75% = +++)”. For “117 (KMPDVELFV; listed as Homo sapiens) [compound 117]”, the Peptide exchange was “+++ (50%-75% = +++)”. In the case of “119 (FIIQGLRSVGA; listed as Homo sapiens) [compound 119]”, the Peptide exchange is reported as “+++ (50%-75% = +++)”. With “38 (FLGPRIIGL; listed as Homo sapiens) [compound 38]” the Peptide exchange was “+++ (50%-75% = +++)”. “156 (ILGDLSHLL; listed as Homo sapiens) [compound 156]” was tested, and the Peptide exchange was “+++ (50%-75% = +++)”. In the case of “131 (VTSNSGILGV; listed as Homo sapiens) [compound 131]”, the Peptide exchange is reported as “+++ (50%-75% = +++)”. For “69 (FLAVGLVDV; listed as Homo sapiens) [compound 69]”, the Peptide exchange was “+++ (50%-75% = +++)”. For “265 (NTCPYVHNI; listed as Homo sapiens) [compound 265]”, the Peptide exchange was “+++ (50%-75% = +++)”. In the case of “36 (SLADTNSLAVV; listed as Homo sapiens) [compound 36]”, the Peptide exchange is reported as “+++ (50%-75% = +++)”.
